US20100190768A1, “NOVEL FUSED PYROLE DERIVATIVE” (Dainippon Sumitomo Pharma Co., Ltd., priority 2005, published 2010)

Assays:
human GRα protein = target: T1, human GRα protein (Homo sapiens, UniProt P04150); assay: Binding inhibitory assay (displacement of 3H-dexamethasone from the cytoplasm fraction of baculovirus-infected insect cells); settings: 100 nM test compound; 3H-Dex; NSB with 10 μM dexamethasone; read-out: Binding Inhibitory ratio (%) of 100 nM of test compound
T1 construct: made in house; host or cells: insect cells infected with baculovirus; cytoplasm fraction used
T1 sequence (P04150 1-777): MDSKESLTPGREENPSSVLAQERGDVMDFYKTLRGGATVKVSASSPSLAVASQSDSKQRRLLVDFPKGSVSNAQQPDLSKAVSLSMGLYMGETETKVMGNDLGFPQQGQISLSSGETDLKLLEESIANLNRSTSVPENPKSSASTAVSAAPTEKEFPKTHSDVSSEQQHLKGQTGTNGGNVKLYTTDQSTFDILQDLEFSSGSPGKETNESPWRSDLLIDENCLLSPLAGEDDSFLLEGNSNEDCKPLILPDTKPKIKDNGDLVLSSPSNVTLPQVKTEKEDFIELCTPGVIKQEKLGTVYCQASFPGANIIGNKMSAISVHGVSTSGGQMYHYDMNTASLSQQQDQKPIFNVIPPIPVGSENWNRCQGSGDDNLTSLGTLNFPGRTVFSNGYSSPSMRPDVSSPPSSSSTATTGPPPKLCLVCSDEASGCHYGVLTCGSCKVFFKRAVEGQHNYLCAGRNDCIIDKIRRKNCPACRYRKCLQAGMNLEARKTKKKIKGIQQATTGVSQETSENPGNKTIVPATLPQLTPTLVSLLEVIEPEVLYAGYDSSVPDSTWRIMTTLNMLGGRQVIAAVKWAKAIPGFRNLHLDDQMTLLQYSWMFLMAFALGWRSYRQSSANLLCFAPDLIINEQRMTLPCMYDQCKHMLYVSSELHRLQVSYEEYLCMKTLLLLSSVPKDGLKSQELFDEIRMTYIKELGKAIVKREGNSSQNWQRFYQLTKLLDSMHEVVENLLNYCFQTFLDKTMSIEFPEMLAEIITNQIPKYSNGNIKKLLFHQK
Procedure, shortened: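 Cytosol from baculovirus-infected insect cells expressing human GRα incubated with compound and 10 nM ³H-dexamethasone solution in Tris/EDTA/glycerol/DTT/molybdate buffer, pH 7.6, 1% DMSO, 16–20 h at 4 °C. Free ligand removed with dextran-coated charcoal, supernatant counted; NSB from 10 μM dexamethasone, inhibition % vs DMSO, duplicates.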

H4-III-E cells = assay: TAT (tyrosine aminotransferase) assay; format: cell-based; settings: for Antagonistic activity of 10 μM test compound: 10 μM test compound together with 0.005 μM dexamethasone, inhibitory ratio against TAT activity increase by Dex
Procedure, shortened: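 Rat hepatoma H4-III-E cells were treated overnight with compound, either alone for agonism or together with 0.005 μM dexamethasone for antagonism. TAT activity in lysates was read at 331 nm after reaction at 37 °C. Activity was expressed as % of the dexamethasone response, or as % inhibition of the dexamethasone-induced increase, and scored at a 10% cutoff.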

[1] = 10 μM test compound alone, relative to maximum Dex-induced TAT activity (100%)

Compound | inhibition at 0.1 µM (human GRα protein) [%] | Agonistic activity of 10 μM test compound (H4-III-E cells; [1]) | Antagonistic activity of 10 μM test compound (H4-III-E cells) | activation at 10 µM (H4-III-E cells; 10 μM test compound alone, relative to maximum Dex-induced TAT activity (100%), read-out: Agonistic activity of 10 μM test compound) [%]
CN1CCCN(C(=O)c2ccc(OC3CCN(CC(O)(c4cn(Cc5ccccc5)c5cc([N+](=O)[O-])ccc45)C(F)(F)F)CC3)cc2)CC1 (stereo not drawn) [Example 203, 2-(1-Benzyl-6-nitro-1H-indol-3-yl)-1,1,1-trifluoro-3-(4-{4-[(4-methyl-1,4-diazepan-1-yl)carbonyl]phenoxy}piperidin-1-yl)propan-2-ol] | 94 | ◯ | ◯ | 
COc1ccc(Cn2cc(C(O)(CN3CCC(Oc4ccc(CC(=O)O)cc4OC)CC3)C(F)(F)F)c3ccc(C#N)cc32)cc1 (stereo not drawn) [Example 226, {4-[(1-{2-[6-Cyano-1-(4-methoxybenzyl)-1H-indol-3-yl]-3,3,3-trifluoro-2-hydroxypropyl}piperidin-4-yl)oxy]-3-methoxyphenyl}acetic acid] | 96 | ◯ | ◯ | 
COc1cc(CC(=O)O)ccc1OC1CCN(CC(O)(c2cn(Cc3ccncc3)c3cc(C#N)ccc23)C(F)(F)F)CC1 (stereo not drawn) [Example 235, {4-[(1-{2-[6-Cyano-1-(pyridin-4-ylmethyl)-1H-indol-3-yl]-3,3,3-trifluoro-2-hydroxypropyl}piperidin-4-yl)oxy]-3-methoxyphenyl}acetic acid] | 79 |  | ◯ | < 10
